{
  "source": "patent US20080194620A1",
  "about": "“Use of Benzodiazepine Receptor Ligands For Combating Signs of Ageing” (L'OREAL, priority 2004, published 2008)",
  "type_in_all_cases": "cell-based",
  "key": {"[1]": {"system": "Normal human epidermal keratinocytes", "assay": "Differentiation of keratinocytes: determination of transglutaminase K1 (TGK1) activity by radioassay", "description": "(§1) Normal human epidermal keratinocytes are cultivated at 37° C. in keratinocyte-SFM medium (Gibco BRL 3701022) supplemented with EGF (epidermal growth factor) and pituitary extract, with or without calcium supplement (1.5 mM). After culture for 24 hours, the medium is replaced with medium containing the actives to be tested or reference substances. Culture is continued for 96 hours. The transglutaminase K1 (TGK1) activity is evaluated by radioassay, by measuring the covalent addition of tritiated putrescine to casein (acceptor protein) for 1 h 30 min at 37° C. The casein is precipitated with TCA (trichloroacetic acid) on a dry filter and then counted in liquid scintillation. The proteins in each sample are determined by means of a kit (BioRad 500-0116). Statistical analysis of the data is performed by analysis of variance (ANOVA) using Dunnett's multiple comparison test.\n(§2) The molecule PK11195 (or 1-(2-chlorophenyl)-N-(1-methyl-propyl)-3-isoquinoline carboxamide), a specific inhibitor of the peripheral benzodiazepine receptor, was tested at respective concentrations of 10^−4 M and 10^−6 M. The active was added to the keratinocyte culture medium, containing calcium or not containing calcium. The effect of a medium alone containing 1.5 mM of calcium (pro-differentiation agent) was used as a positive control of differentiation. […]"}, "[2]": {"system": "Normal human epidermal keratinocytes", "assay": "Cellular viability of keratinocytes in the TGK1 differentiation cultures", "conditions": "10^−6 M; medium with calcium (1.5 mM); 96 h culture; control = 100%", "description": "as §1, §2"}, "[3]": {"system": "Normal human epidermal keratinocytes", "assay": "Synthesis of total epidermal glycosaminoglycans (incorporation of 3H-glucosamine)", "conditions": "1.5 mM, 72 h incubation", "description": "Normal human epidermal keratinocytes are cultivated in SFM complete medium for 24 hours. The medium is then removed, and replaced with SFM medium without supplements containing the product PK11195 or the pharmacological reference. It is incubated for 72 h at 37° C. Tritiated glucosamine (D-[6-^3H]-glucosamine, Amersham TRK398 (1.3 Tbq/mmol, 35 Ci/mmol) is added for the last 24 hours of incubation. The glycosaminoglycans are extracted from the culture medium and from the deposited matrix, with a chaotropic buffer, then purified by ion-exchange chromatography. The radioactivity incorporated in the […] molecules (mostly GAGs) is counted by liquid scintillation. The results are expressed as percentage change in synthesis of the GAGs relative to the control."}},
  "data": [
    {"compound": "CC1=C(/C=C/C(C)=C/C=C/C(C)=C/CO)C(C)(C)CCC1", "note": "[retinol]", "values": [
      {"measurement": "TGK1 activity", "setting": "[1]; 10^−6 M, medium with calcium (1.5 mM), 96 h culture, control = 100%, *p<0.05", "result": 56, "unit": "%"},
      {"measurement": "decrease in TGK1 activity", "setting": "[1]; medium with retinol 10^−6 M (anti-differentiation reference)", "result": "−44", "unit": "%"},
      {"measurement": "Cellular viability", "setting": "[2]", "result": 103, "unit": "%"}
    ]},
    {"compound": "[Ca+2].[Cl-].[Cl-]", "note": "[CaCl2]", "values": [
      {"measurement": "Incorporation of 3H-glucosamine, CPM", "setting": "[3]; control 10624 CPM", "result": 16791, "unit": "CPM"},
      {"measurement": "Incorporation of 3H-glucosamine, Percentage/control", "setting": "[3]; p<0.01", "result": 158, "unit": "%"}
    ]}
  ]
}
